Consider one compound from US7479492B2, “Use combined 5-HT1A agonists and selective serotonin reuptake inhibitors” (Merck Patent GmbH, priority 2000, dated 2009).

The structures appear in SMILES notation.

The test system of test [1] is writhing response induced by phenylbenzoquinone (PBQ) or acetic acid. In words: Phenylbenzoquinone and acetic writhing tests in mice. The following applies: 30 mg/kg p.o., PBQ 1.25 mg/kg i.p. or acetic acid 0.5% i.p. Format: in vivo, mouse. As for the experimental part: 5. Phenylbenzoquinone and acetic writhing tests in mice follow the methods described by Hendershot et al (J. Pharmacol. Exp. Ther. 1959, 125: 237-240): Mice are injected with phenylbenzoquinone (PBQ) (1.25 mg/kg i.p.) or acetic acid (0.5% i.p.). This treatment induces a recognizable writhing response in control animals. The number of writhes is counted for 10 minutes beginning 5 minutes after injection of PBQ or acetic acid.
Background: In writhing tests, fewer writhes than in controls are read as antinociception.

Test [2] has as its system formalin-induced pain response (flinching). The test is described as follows: Formalin paw test in the mouse or rat. Format: in vivo. To be noted: 30 mg/kg p.o.; intraplantar 5% formalin. As for the experimental part:
1. Formalin paw test in the mouse or rat accorrding to Wheeler-Aceto et al., (Psychopharmacology 1991, 104: 35-44): Animals are given an intraplantar injection of 5% formalin (25 μl for the mouse, 50 μl for the rat) into the posterior left paw. This treatment induces a recognizable flinching response in control animals. The number of flinches is counted for 10 minutes, beginning immediately after injection of formalin (early phase) and again for 5 minutes in mice or 15 minutes in rats, beginning 20 minutes after the injection.

`Cl.N#Cc1ccc2[nH]cc(CCCCN3CCN(c4ccc5oc(C(N)=O)cc5c4)CC3)c2c1` [1-[4-(5-cyanoindol-3-yl)butyl]-4-(2-carbamoyl-benzofuran-5-yl)-piperazine hydrochloride] returned a reduction of writhes in test [1] of 82%. Besides, the “reduction of the formalin-induced pain response” value in test [2] amounted to 79%.
